Data on eight compounds can be found in patent US6916933B2, “4-pyridinyl-n-acyl-l-phenylalanines” (Hoffman-La Roche Inc., priority 1999, dated 2005).

Some results are limits rather than exact numbers.

This assay concerns the target T1, alpha4-beta7 on RPMI 8866 cells binding to MadCAM (Homo sapiens, UniProt P13612+P26010).
T1 construct: endogenous in cells; host or cells: RPMI 8866 cells
T1 sequence (P13612 34-1032): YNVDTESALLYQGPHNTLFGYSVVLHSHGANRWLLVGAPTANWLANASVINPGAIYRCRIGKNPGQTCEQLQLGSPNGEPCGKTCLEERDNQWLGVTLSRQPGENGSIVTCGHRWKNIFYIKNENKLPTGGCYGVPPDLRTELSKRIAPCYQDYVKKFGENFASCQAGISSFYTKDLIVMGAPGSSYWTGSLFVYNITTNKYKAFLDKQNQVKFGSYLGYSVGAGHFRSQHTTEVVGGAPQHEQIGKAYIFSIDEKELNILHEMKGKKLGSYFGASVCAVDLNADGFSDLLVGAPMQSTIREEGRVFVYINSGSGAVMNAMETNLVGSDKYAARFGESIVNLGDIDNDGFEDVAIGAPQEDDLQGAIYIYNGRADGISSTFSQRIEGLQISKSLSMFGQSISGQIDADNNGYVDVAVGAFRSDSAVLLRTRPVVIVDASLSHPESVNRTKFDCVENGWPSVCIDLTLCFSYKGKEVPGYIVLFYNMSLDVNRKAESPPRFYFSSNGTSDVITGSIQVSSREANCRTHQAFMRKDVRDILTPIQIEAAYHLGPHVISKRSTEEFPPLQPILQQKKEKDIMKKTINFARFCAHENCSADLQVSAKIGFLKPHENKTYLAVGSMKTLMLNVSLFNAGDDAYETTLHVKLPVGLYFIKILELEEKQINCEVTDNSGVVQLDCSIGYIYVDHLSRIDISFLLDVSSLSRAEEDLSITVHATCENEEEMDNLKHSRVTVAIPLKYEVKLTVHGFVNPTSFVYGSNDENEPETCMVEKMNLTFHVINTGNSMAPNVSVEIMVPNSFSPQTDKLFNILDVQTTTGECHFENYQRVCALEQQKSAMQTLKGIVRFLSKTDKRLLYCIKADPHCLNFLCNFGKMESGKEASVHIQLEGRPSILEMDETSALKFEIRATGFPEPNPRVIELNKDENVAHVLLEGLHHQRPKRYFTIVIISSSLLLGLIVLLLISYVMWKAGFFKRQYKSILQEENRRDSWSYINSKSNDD
T1 sequence (P26010 20-798): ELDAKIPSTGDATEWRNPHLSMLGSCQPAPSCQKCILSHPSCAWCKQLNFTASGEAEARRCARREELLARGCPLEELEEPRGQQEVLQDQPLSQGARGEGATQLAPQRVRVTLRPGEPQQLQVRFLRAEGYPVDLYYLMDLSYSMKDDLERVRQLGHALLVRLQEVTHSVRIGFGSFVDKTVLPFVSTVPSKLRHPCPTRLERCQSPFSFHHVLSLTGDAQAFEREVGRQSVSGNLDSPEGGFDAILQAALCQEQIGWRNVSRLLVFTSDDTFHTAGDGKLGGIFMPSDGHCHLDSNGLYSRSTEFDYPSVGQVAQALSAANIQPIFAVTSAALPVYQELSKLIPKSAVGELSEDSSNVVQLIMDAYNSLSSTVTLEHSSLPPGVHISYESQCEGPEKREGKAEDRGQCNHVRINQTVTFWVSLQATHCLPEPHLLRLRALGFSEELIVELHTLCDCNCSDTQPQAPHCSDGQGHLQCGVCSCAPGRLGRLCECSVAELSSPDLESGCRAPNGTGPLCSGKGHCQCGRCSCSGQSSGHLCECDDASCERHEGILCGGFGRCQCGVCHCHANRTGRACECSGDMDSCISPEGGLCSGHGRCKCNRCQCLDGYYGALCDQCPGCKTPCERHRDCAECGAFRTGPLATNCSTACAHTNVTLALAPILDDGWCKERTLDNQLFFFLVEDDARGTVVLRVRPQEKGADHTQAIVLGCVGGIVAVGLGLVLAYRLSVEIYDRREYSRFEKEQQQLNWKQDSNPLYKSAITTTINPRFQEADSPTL
Put plainly: Alpha4-Beta7 Assay (MadCAM/RPMI 8866 cell adhesion). It counts as cell-based. To be noted: calcein labeled RPMI 8866 cells, MadCAM coated plates. How it is done: Alpha4-Beta7 Assay Protocol
Two weeks to one day prior to the assay, Nunc high-binding F96 Maxisorp immuno plates, #442404 or #439454, were coated with 25 ng/well (0.25 μg/ml) MadCAM in a volume of 100 μl/well. The plates were covered with sealer and wrapped in saran wrap followed by incubation in the refrigerator for at least 24 hours. The coating buffer employed was: 10 mM carbonate/bicarbonate buffer made up from: 0.8 g/L sodium carbonate and 1.55 g/L sodium bicarbonate adjusted to pH 9.6 with 1 N HCl.
Assay buffers consisted of the following: • Wash Buffer: 0.05% Tween 20 in PBS • Blocking Buffer: 1% Nonfat Dry Milk in PBS • Labeling Buffer: PBS • Cell Buffer: RPMI 1640 medium (no additives) • Binding Buffer: 1.5 mM CaCl2 • 0.5 mM MnCl2 • 50 mM TRIS-HCl; add NaOH dropwise to pH 7.5 • Bring to volume in H2O • Adjust to pH 7.5 • Dilution Buffer: 4% DMSO in Binding Buffer
Plates were washed 2× with wash buffer and then blocked at room temperature for at least 1 hour with Blocking Buffer. Sealed plates were sometimes blocked overnight in the refrigerator. Plates were then washed with PBS and hand blotted dry. Remaining liquid was aspirated from the wells.
Sufficient RPMI 8866 cells were removed from stock for assay (2×10^6 cells/ml×10 ml/plate×number of plates) and placed in a centrifuge tube. The tubes were filled to volume with PBS and were spun at 200×G for 8 minutes. The buffer was poured off and the cells were resuspended to 10×10^6/ml in PBS and a stock solution of calcein in DMSO (5 mg/mL) was added at 5 μl/ml of cell suspension. The suspension was incubated for 30 minutes at 37° C. in dark. The cells were then washed with PBS. The PBS was poured off and the cells resuspended in cell buffer at a concentration of 2×10^6 cells/mL for plating in the assay.
Stock solution of test compounds at 25× first dilution desired in 100% DMSO were prepared. First dilutions for the standard, as well as test compounds, were 1:25 into straight Binding Buffer, while the remaining serial dilutions were into Dilution Buffer (Binding Buffer/4% DMSO). Stock concentrations and dilutions of compounds for screening were determined by anticipated activity.
For the assay, 129 μl Binding Buffer was plated into first row of wells and 100 μl Dilution Buffer was plated into remaining wells. A 5.4 μl aliquot of each compound was pipetted into appropriate, labeled wells, in triplicate. The compounds were next diluted down the plate (34 μl+100 μl=>4-fold dilution). For controls, 100 μl of Dilution Buffer+100 μl Cell Buffer were plated into the nonspecific background wells (no cells, no compound) and 100 μl Dilution Buffer+100 μl cells were plated into the total binding wells (no compound=100% binding). Labeled cells at 2×10^6 cells/ml, 100μl/well (=2×10^5 cells/well) were added to each well containing compound. The plates were sealed and incubated in the dark for 45 minutes at room temperature. Following incubation, unbound cells were removed by adding 150 μl PBS/well. The plates were inverted, blotted onto paper towels and washed by gently adding 200 μl PBS to wells and blotting again. Remaining buffer was carefully aspirated from the wells. A final 100 μl PBS was added to each well.
The plates were then read for fluorescence intensity on a Cytofluor 2300 (Millipore) fluorecence measurement system (excitation=485 nm, emission=530 nm). IC50s of each compound were determined by linear regression analysis.
In general, IC50 refers to the concentration that inhibits the measured activity by half. As to `Cc1ccn(C)c(=O)c1-c1ccc(C[C@H](NC(=O)c2c(Cl)cccc2Cl)C(=O)O)cc1` [Example 31, N-[(2,6-dichlorophenyl)carbonyl]-4-(1,4-dimethyl-2-oxo-3-pyridinyl)-L-phenylalanine], the 50% inhibitory concentration (IC50) is below 10 µM.
For `Cc1cc(C(F)(F)F)c(-c2ccc(C[C@H](NC(=O)c3c(Cl)cccc3Cl)C(=O)O)cc2)c(=O)n1C` [Example 33, N-[(2,6-dichlorophenyl)carbonyl]-4-[1,6-dimethyl-4-(trifluoromethyl)-2-oxo-3-pyridinyl]-L-phenylalanine], the concentration for half-maximal inhibition (IC50) is below 0.1 µM.
To `COCCC1(C(=O)N[C@@H](Cc2ccc(-c3c(C(F)(F)F)cc(C)n(C)c3=O)cc2)C(=O)O)CCCC1` [Example 37, N-[[1-(2-methoxyethyl)cyclopentyl]carbonyl]-4-[1,6-dimethyl-4-(trifluoromethyl)-2-oxo-3-pyridinyl]-L-phenylalanine] belongs below 10 µM; to `Cc1cccc(Cl)c1C(=O)N[C@@H](Cc1ccc(-c2c(C(F)(F)F)cc(C)n(C)c2=O)cc1)C(=O)O` [Example 36, N-[(2-chloro-6-methylphenyl)carbonyl]-4-[1,6-dimethyl-4-(trifluoromethyl)-2-oxo-3-pyridinyl]-L-phenylalanine], below 10 µM; to `Cc1cccc(C(C)C)c1C(=O)N[C@@H](Cc1ccc(-c2c(C(F)(F)F)cc(C)n(C)c2=O)cc1)C(=O)O` [Example 35, N-[(2-(1-methylethyl)-6-methylphenyl)carbonyl]-4-[1,6-dimethyl-4-(trifluoromethyl)-2-oxo-3-pyridinyl]-L-phenylalanine], below 5 µM.
To `Cc1cccc(Cl)c1C(=O)N[C@@H](Cc1ccc(-c2cccn(C)c2=O)cc1)C(=O)O` [Example 30, N-[(2-chloro-6-methylphenyl)carbonyl]-4-(1-methyl-2-oxo-3-pyridinyl)-L-phenylalanine] belongs below 10 µM.
As to `Cc1cccc(Cl)c1C(=O)N[C@@H](Cc1ccc(-c2c(C)ccn(C)c2=O)cc1)C(=O)O` [Example 32, N-[(2-chloro-6-methylphenyl)carbonyl]-4-(1,4-dimethyl-2-oxo-3-pyridinyl)-L-phenylalanine], the IC50 was below 10 µM.
To `CCc1cccc(C)c1C(=O)N[C@@H](Cc1ccc(-c2c(C(F)(F)F)cc(C)n(C)c2=O)cc1)C(=O)O` [Example 34, N-[(2-ethyl-6-methylphenyl)carbonyl]-4-[1,6-dimethyl-4-(trifluoromethyl)-2-oxo-3-pyridinyl]-L-phenylalanine] belongs below 10 µM.
